This passage reports EC50 and IC50 results from patent US12391683B2, “Therapeutic compounds and methods” (Actio Biosciences, Inc., priority 2022, dated 2025).

Some results are limits rather than exact numbers.

The assay concerns the target T1, TRPV3 channels (Homo sapiens, UniProt Q8NET8).
T1 construct: expressed in transfected cells; host or cells: HEK293 (transient)
T1 sequence (Q8NET8 1-790): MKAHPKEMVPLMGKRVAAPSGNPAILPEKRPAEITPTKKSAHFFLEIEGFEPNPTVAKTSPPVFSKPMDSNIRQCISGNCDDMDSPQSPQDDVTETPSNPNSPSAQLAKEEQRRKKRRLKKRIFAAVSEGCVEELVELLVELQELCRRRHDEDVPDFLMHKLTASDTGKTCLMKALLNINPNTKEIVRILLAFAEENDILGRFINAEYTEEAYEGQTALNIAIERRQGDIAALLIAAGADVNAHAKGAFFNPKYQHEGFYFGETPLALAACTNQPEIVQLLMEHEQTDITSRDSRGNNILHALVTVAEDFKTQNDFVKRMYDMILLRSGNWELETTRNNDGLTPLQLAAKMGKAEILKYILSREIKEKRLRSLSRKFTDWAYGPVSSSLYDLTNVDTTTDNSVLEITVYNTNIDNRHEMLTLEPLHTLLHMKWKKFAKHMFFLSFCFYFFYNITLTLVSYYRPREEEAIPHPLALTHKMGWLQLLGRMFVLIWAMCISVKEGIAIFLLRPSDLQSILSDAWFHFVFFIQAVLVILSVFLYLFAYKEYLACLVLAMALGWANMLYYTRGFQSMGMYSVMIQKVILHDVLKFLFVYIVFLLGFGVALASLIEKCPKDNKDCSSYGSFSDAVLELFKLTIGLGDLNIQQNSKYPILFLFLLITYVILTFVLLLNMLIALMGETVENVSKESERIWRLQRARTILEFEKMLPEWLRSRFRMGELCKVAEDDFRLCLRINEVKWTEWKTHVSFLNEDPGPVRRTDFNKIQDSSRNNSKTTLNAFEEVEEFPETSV
Description: TRP Family FLIPR Assay, TRPV3. Conditions: HEK293 cells (transient). Format: cell-based. As for the experimental part: The compound of Example 5 was tested for selectivity against a panel of Human TRP family ion channels in a TRP Family FLIPR Assay as described below. • 1. TRPC3 channels (human TRPC3 variant 1 gene, expressed in HEK293 cells). • 2. TRPC4 channels (human TRPC4 gene, expressed in HEK293 cells). • 3. TRPC5 channels (human TRPC5 gene, expressed in HEK293 cells). • 4. TRPC6 channels (human TRPC6 gene, expressed in HEK293 cells). • 5. TRPM2 channels (human TRPM2 gene, transiently expressed in HEK293 cells). • 6. TRPM3 channels (human TRPM3 gene, transiently expressed in HEK293 cells). • 7. TRPM4 channels (human TRPM4 gene, expressed in CHO cells). • 8. […]
Data acquisition was performed via the FLIPR Control software supplied with the FLIPR System (MDS-AT) and data was analyzed using Microsoft Excel (Microsoft Corp., Redmond, WA) or GraphPad Prism. […]
[formula] where Base is the response at low concentrations of test article, Max is the maximum response at high concentrations, xhalf the EC50, or IC50, the concentration of test article producing either half-maximal activation or inhibition, and rate is the Hill coefficient. […] No assumptions about the fit parameters was made; the fit parameters were determined by the algorithm.
The effect of each test article was evaluated at eight (8) concentrations: 0.003, 0.01, 0.03, 0.1, 0.3, 1, 3 and 10 μM, n≤4 wells/concentration). […]

By EC50 is commonly meant the concentration that produces a half-maximal response. The IC50 is the concentration needed to halve the response being measured.

As for `CC(C)(O)c1cnc(N2C[C@@]3(CC[C@@H](F)[C@](C)(Cn4cnc5ccc(C#N)cc54)C3)OC2=O)cn1` (single isomer, unassigned) [Example 5], where the note is “agonist mode, vs EMAX of cannabidiol 300 μM, read-out: EC50 hTRPV3”, the EC50 is > 10 µM. Further, the IC50 (antagonist mode, activated with 2-APB 50 μM, 0.003-10 μM, read-out: IC50 hTRPV3) is > 10 µM.
